Experimental data from ChEMBL document CHEMBL4665874, “The splicing modulator sulfonamide indisulam reduces AR-V7 in prostate cancer cells” (2020).
Activity calls are given as the source filed them. The calls are words filed in the database; no cut-off is given here.

Assays:
[1] = molecular target: T1, Androgen receptor (Homo sapiens) (UniProt P10275); assay: Antagonist activity at AR in human VCaP cells assessed as upregulation of DHT-suppressed AR-V7 mRNA transcript level at 10 uM preincubated for 24 hrs with DHT followed by wash-out and then incubated with compound for 24 hrs by RT-qPCR analysis; format: cell-based
T1 sequence (whole entry): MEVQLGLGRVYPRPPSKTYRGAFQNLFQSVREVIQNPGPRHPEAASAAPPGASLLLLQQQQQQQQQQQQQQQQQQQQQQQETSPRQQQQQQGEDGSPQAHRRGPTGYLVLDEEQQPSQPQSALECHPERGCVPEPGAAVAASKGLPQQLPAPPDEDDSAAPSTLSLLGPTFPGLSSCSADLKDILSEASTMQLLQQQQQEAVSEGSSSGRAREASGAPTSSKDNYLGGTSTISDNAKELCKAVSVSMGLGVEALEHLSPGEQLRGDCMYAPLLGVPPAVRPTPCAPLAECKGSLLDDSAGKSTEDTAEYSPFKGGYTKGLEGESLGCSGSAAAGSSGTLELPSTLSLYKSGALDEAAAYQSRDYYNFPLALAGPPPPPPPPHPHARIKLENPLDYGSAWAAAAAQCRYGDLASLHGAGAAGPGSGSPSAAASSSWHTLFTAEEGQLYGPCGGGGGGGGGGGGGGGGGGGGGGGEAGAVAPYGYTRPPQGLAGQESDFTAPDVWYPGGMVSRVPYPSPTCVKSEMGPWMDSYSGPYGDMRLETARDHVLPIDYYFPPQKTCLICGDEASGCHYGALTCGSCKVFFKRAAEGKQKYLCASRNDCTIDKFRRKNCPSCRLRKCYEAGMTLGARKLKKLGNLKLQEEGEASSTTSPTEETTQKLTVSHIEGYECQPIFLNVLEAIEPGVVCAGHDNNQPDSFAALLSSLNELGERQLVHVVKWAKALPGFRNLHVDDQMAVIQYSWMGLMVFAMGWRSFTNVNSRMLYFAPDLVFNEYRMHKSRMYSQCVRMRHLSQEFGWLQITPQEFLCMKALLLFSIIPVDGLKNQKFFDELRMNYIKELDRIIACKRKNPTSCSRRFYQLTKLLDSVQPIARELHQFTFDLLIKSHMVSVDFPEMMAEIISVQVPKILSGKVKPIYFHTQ

VCaP [2] = assay: Recovery of DHT-suppressed full length AR mRNA expression in human VCaP cells at 10 uM preincubated for 24 hrs with DHT followed by wash-out and then incubated with compound for 24 hrs by RT-qPCR analysis; format: functional, cell-based
Mus musculus [3] = assay: Reduction in total AR isoforms in tumor lysates of NSG mouse xenografted with human VCaP cells at 10 mg/kg, po co-administered with 25 mg/kg AR antagonist MDV via gavage with 5 days on and 2 days off dosing schedule for 6 weeks by immunoblot analysis; format: functional, organism-based; conditions: Neoplasm
[4] = molecular target: T2, RNA-binding protein 39 (Homo sapiens) (UniProt Q14498); assay: Induction of RBM39 degradation in human VCaP cells assessed as reduction in AR-V7 protein expression preincubated for 24 hrs with DHT followed by wash-out and incubated with compound for 24 hrs in presence of AR antagonist MDV by western blot analysis; format: cell-based
T2 sequence (whole entry): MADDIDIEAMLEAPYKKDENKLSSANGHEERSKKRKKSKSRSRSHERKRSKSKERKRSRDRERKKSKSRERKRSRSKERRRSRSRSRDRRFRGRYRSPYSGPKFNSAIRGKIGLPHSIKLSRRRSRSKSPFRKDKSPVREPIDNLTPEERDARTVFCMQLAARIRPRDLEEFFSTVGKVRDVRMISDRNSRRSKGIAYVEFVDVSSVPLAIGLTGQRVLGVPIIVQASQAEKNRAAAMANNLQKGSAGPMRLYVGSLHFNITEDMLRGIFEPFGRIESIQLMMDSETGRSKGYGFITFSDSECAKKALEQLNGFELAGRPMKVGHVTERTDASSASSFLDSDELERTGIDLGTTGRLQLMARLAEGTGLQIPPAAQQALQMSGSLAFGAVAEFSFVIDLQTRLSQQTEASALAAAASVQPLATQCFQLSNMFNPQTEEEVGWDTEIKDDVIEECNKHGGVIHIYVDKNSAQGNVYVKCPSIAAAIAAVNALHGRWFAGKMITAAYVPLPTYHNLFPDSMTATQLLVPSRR

Mus musculus [5] = assay: Reduction in RBM39 level in tumor lysates of NSG mouse xenografted with human VCaP cells at 10 mg/kg, po co-administered with 25 mg/kg AR antagonist MDV via gavage with 5 days on and 2 days off dosing schedule for 6 weeks by immunoblot analysis; format: functional, organism-based; conditions: Neoplasm
VCaP [6] = assay: Effect on MDV-induced recovery of DHT-suppressed full length AR mRNA expression in human VCaP cells at 10 uM preincubated for 24 hrs with DHT followed by wash-out and then incubated with compound for 24 hrs in presence of AR antagonist , MDV by RT-qPCR analysis; format: functional, cell-based
[7] = molecular target: T2, RNA-binding protein 39 (Homo sapiens); assay: Induction of RBM39 degradation in human VCaP cells assessed as reduction in RBM39 protein expression preincubated for 24 hrs with DHT followed by wash-out and incubated with compound for 24 hrs in presence of AR antagonist MDV by western blot analysis; format: cell-based
[8] = molecular target: T2, RNA-binding protein 39 (Homo sapiens); assay: Induction of RBM39 degradation in human VCaP cells assessed as AR splicing modulation by measuring reduction in AR-V7 splice variant mRNA transcript level incubated for 24 hrs in presence of AR antagonist MDV by RT-qPCR analysis; format: cell-based
Mus musculus [9] = assay: Reduction in total AR isoforms in tumor lysates of NSG mouse xenografted with human VCaP cells at 10 mg/kg, po administered via gavage with 5 days on and 2 days off dosing schedule for 6 weeks by immunoblot analysis; format: functional, organism-based; conditions: Neoplasm
Mus musculus [10] = assay: Reduction in RBM39 level in tumor lysates of NSG mouse xenografted with human VCaP cells at 10 mg/kg, po administered via gavage with 5 days on and 2 days off dosing schedule for 6 weeks by immunoblot analysis; format: functional, organism-based; conditions: Neoplasm
VCaP [11] = assay: Antiproliferative activity against human VCaP cells assessed as reduction in cell viability at 1 to 10 uM after 14 days in presence of AR antagonist MDV by Celltiter-Glo luminescence assay; format: functional, cell-based; conditions: dose microM 1-10, time 14.0 day
Mus musculus [12] = assay: Reduction in AR-V7 level in tumor lysates of NSG mouse xenografted with human VCaP cells at 10 mg/kg, po administered via gavage with 5 days on and 2 days off dosing schedule for 6 weeks by immunoblot analysis; format: functional, organism-based; conditions: Neoplasm
VCaP [13] = assay: Antitumor activity against human VCaP cells xenografted in NSG mouse assessed as tumor volume at 10 mg/kg, po co-administered with 25 mg/kg AR antagonist MDV via gavage with 5 days on and 2 days off dosing schedule for 6 weeks and measured bi-weekly for 6 weeks (reference value: 698.9 +/-286.5 […]); format: functional
VCaP [14] = assay: Antitumor activity against human VCaP cells xenografted in NSG mouse assessed as tumor volume at 10 mg/kg, po administered via gavage with 5 days on and 2 days off dosing schedule for 6 weeks and measured bi-weekly for 6 weeks; format: functional
VCaP [15] = assay: Effect on full-length AR mRNA level in human VCaP cells at 10 uM after 24 hrs by RT-qPCR analysis; format: functional, cell-based
[16] = molecular target: T2, RNA-binding protein 39 (Homo sapiens); assay: Induction of RBM39 degradation in human VCaP cells assessed as reduction in RBM39 protein expression at 10 uM preincubated for 24 hrs with DHT followed by wash-out and incubated with compound for 24 hrs in presence of AR antagonist MDV by western blot analysis; format: cell-based
Mus musculus [17] = assay: Reduction in AR-V7 level in tumor lysates of NSG mouse xenografted with human VCaP cells at 10 mg/kg, po co-administered with 25 mg/kg AR antagonist MDV via gavage with 5 days on and 2 days off dosing schedule for 6 weeks by immunoblot analysis; format: functional, organism-based; conditions: Neoplasm

- Activity [1]: inactive
- Activity [4]: Dose-dependent effect
- Activity [7]: Dose-dependent effect
- Activity [8]: Dose-dependent effect
- Activity [16]: Active
SMILES: NS(=O)(=O)c1ccc(S(=O)(=O)Nc2cccc3c(Cl)c[nH]c23)cc1 [INDISULAM]
- Activity (VCaP [2]): Active
- inhibition (Mus musculus [3]): Active
- inhibition (Mus musculus [5]): inactive
- Activity (VCaP [6]): inactive
- inhibition (Mus musculus [9]): Active
- inhibition (Mus musculus [10]): Active
- Activity (VCaP [11]): Active
- inhibition (Mus musculus [12]): Active
- Activity (VCaP [13]): 409 mm3
- Activity (VCaP [14]): 152 mm3
- Activity (VCaP [15]): inactive
- inhibition (Mus musculus [17]): Active
